Assay type in all cases: toxicity, cell-based
Series [1] is described as follows: MMV: MTT Cytotoxicity Assay Day 3 pi, U87-CD4-CCR5 cells, % cell death @ 5mM compound. To be noted: human, u87-cd4-ccr5, 5000 µM.
A short description of series [2]: MMV: MTT Cytotoxicity Assay Day 7 pi of Assay #7 (compound washed out Day 1 pi), U87-CD4-CXCR4 cells, % cell death @ 5mM compound. To be noted: human, u87-cd4-cxcr4, 5000 µM.
The nature of series [3]: MMV: MTT Cytotoxicity Assay Day 7 pi of Assay #6 (compound washed out Day 1 pi), U87-CD4-CCR5 cells, % cell death @ 5mM compound. The settings on record: human, u87-cd4-ccr5, 5000 µM.
Series [4] in a line: MMV: MTT Cytotoxicity Assay Day 7 pi of Assay #10 (NO washout), U87-CD4-CCR5 cells, % cell death @ 5mM compound. To be noted: human, u87-cd4-ccr5, 5000 µM.
Series [5] can be described thus: MMV: MTT Cytotoxicity Assay Day 7 pi of Assay #11 (NO washout), U87-CD4-CXCR4 cells, % cell death @ 5mM compound. To be noted: human, u87-cd4-cxcr4, 5000 µM.
The nature of series [6]: MMV: MTT Cytotoxicity Assay Day 3 pi, U87-CD4-CXCR4 cells, % cell death @ 5mM compound. To be noted: human, u87-cd4-cxcr4, 5000 µM.

Consider `CC(C)(C)c1ccc(O)c(CNC2CCCCC2)c1`, for which the “% Cell Death” value in series [1] came to 108; in series [2], 96; in series [3], 69; in series [4] it was 132; in series [5] it was 101; in series [6] it was 66.

For `CCCCc1c(C)nc2c(OC)cccc2c1O`, the “% Cell Death” value in series [1] was found to be 0; in series [2], 17; in series [3], 43; in series [4] it was 74; in series [5], 46; in series [6], 52.

As for `CCOC(=O)c1cnc2c(C)cc(C)cc2c1Nc1ccc(OC)c(OC)c1`, the “% Cell Death” value is reported as 11 in series [1]; 7 in series [2]; 19 in series [3]; 8 in series [4]; -7 in series [5]; 22 in series [6].

`CCOc1ccc(Nc2ccnc3cc(Cl)ccc23)cc1`: the “% Cell Death” value in series [1] was 35; in series [2], 47; in series [3] it was 20; in series [4], 72; in series [5], -19; in series [6], 78.

Turning to `CCOC(=O)c1ccc2[nH]c(-c3ccccc3)cc(=O)c2c1`, the “% Cell Death” value in series [1] is recorded as 104; in series [2] it was 96; in series [3], 98; in series [4], 129; in series [5], 99; in series [6], 99.

As for `Cc1cc(NC(=O)c2cccc(C(F)(F)F)c2)n(-c2nc(-c3ccc4c(c3)OCO4)cs2)n1`, the “% Cell Death” value in series [1] is recorded as 40; in series [2] it was -18; in series [3] it was 16; in series [4], 9; in series [5], -57; in series [6], 17.

Turning to `COc1ccccc1CNC(=O)CCn1c(=O)[nH]c2ccsc2c1=O`, the “% Cell Death” value was 34 in series [1]; -19 in series [2]; -12 in series [3]; -16 in series [4]; -15 in series [5]; 10 in series [6].

`COc1cccc(C=Cc2nc(=O)c3ccccc3o2)c1OC`: the “% Cell Death” value is recorded as 70 in series [1]; -19 in series [2]; 17 in series [3]; 51 in series [4]; 31 in series [5]; 54 in series [6].

As to `O=C(CSc1ccc2nnc(-c3cccc(F)c3)n2n1)Nc1ccc2c(c1)OCO2`, the “% Cell Death” value in series [1] turned out to be 82; in series [2], 48; in series [3], 63; in series [4], 94; in series [5], 100; in series [6] it was 54.

On to `Cc1ccc2c(C)nc(Nc3nc(C)cc(-c4ccccc4)n3)nc2c1`, for which the “% Cell Death” value in series [1] is on record as 107; in series [2], 97; in series [3], 98; in series [4], 114; in series [5], 104; in series [6], 99.

On to `COc1ccc(CCN2CCC(CN(C)Cc3cnn(-c4ccccc4)c3)CC2)cc1`, for which the “% Cell Death” value is reported as 33 in series [1]; 16 in series [2]; 68 in series [3]; 110 in series [4]; 93 in series [5]; 53 in series [6].

Regarding `CC(C)OCc1cc(CN2CCN(c3cccc(Cl)c3)CC2)c(O)c2ncccc12`, the “% Cell Death” value was 14 in series [1]; -12 in series [2]; 19 in series [3]; 125 in series [4]; 32 in series [5]; 19 in series [6].

Take `O=C(Nc1cccc(-c2nc3ccccc3[nH]2)c1)c1cccc(NC(=O)c2ccco2)c1`: the “% Cell Death” value was -8 in series [1]; -31 in series [2]; 11 in series [3]; 20 in series [4]; -18 in series [5]; 22 in series [6].

In the case of `Oc1ccc(Cl)cc1CNc1nc2ccccc2[nH]1`, the “% Cell Death” value is listed as -44 in series [1]; -38 in series [2]; 10 in series [3]; -8 in series [4]; 24 in series [5]; 10 in series [6].

For the molecule `CCN(CC)CCNc1ncnc2c1[nH]c1ccc(Cl)cc12`, the “% Cell Death” value in series [1] is recorded as 15; in series [2], -31; in series [3] it was 1; in series [4] it was 5; in series [5] it was -1; in series [6], 30.

Turning to `CCOC(=O)c1cnc2c(C)cccc2c1Nc1ccc(C(C)=O)cc1`, the “% Cell Death” value in series [1] worked out at 70; in series [2] it was 78; in series [3], 49; in series [4], 69; in series [5] it was 80; in series [6], 76.

Consider `CC(C)(C)C(=O)Nc1ccc(C(=O)Nc2cccc(-c3nc4ccccc4[nH]3)c2)cc1`, for which the “% Cell Death” value in series [1] is 17; in series [2], -22; in series [3], 18; in series [4], 4; in series [5], 85; in series [6], 20.

In the case of `COc1ccccc1N1CCN(C(CNS(=O)(=O)c2ccc(Cl)cc2)c2cccnc2)CC1` (configuration not stated), the “% Cell Death” value is on record as 109 in series [1]; 81 in series [2]; 83 in series [3]; 130 in series [4]; 105 in series [5]; 94 in series [6].

Consider `CC1CC2=C(CC1CNCCCN(C)C)C(C)(C)CCC2` (configuration not stated), for which the “% Cell Death” value was -1 in series [1]; 23 in series [2]; -9 in series [3]; 19 in series [4]; -30 in series [5]; 36 in series [6].

As to `Cc1ccc(N2C3c4ccccc4N(S(=O)(=O)c4ccc(C)cc4)C2c2ccccc2N3S(=O)(=O)c2ccc(C)cc2)cc1`, the “% Cell Death” value in series [1] was 26; in series [2] it was -17; in series [3], 0; in series [4], 8; in series [5] it was -39; in series [6], 37.

Turning to `CCOc1ccc(/C=C/c2nc(=O)c3ccccc3o2)cc1`, the “% Cell Death” value was 41 in series [1]; -27 in series [2]; 27 in series [3]; 21 in series [4]; 10 in series [5]; 31 in series [6].

On to `CCCN(CCC)CCCNC(=O)c1cc2c(-c3ccc(OC)c(OC)c3)nn(C)c2s1`, for which the “% Cell Death” value was 51 in series [1]; -24 in series [2]; 59 in series [3]; 100 in series [4]; 103 in series [5]; 9 in series [6].

(Values after ChEMBL document CHEMBL3301472, “MMV Malaria Box HIV and cytotoxicity screening”.)
